Test results from article PMC3347614 (Acta Naturae, 2011).
“Also recorded” adds a separate entry of the source.

Target: T1, DNA gyrase (Escherichia coli, UniProt P0AES4+P0AES6)
T1 construct: His6 (N); made in house; host or cells: Escherichia coli Rosetta (DE3)
Test: Inhibition of DNA gyrase supercoiling of relaxed plasmid pBR322 (agarose gel electrophoresis)
Format: biochemical, E. coli
Conditions: for Inhibitory activity towards DNA gyrase, in words: qualitative statement; for Activity towards DNA gyrase compared with that of levofloxacin: relative to levofloxacin, in words
Description: The reaction mixture (30 µl) contained 35 mM Tris-HCl (pH 7.5), 24 mM KCl, 4 mM MgCl 2 , 1.4 mM ATP, 5 mM DTT, 1.8 mM spermidine, and 0.1 mg/ml of a bovine serum albumin. A mixture of DNA gyrase A and B subunits (0.4 µg) and 0.25–0.5 µg of the substrate (relaxed plasmid pBR322) were added to the reaction probe. The reaction was performed for 60 min at 25°C (for multiple samples, 96-well plates were used). After the reaction was completed, the samples were extracted with an equal volume of chloroform (30 µl). Then, 7 µl of the mixture containing […], 25% of glycerol, and 0.25% of bromphenol blue were added to the aqueous phase. The mixture was applied on a 1.2% agarose gel in TAE buffer (40 mM Tris-acetate, pH 8.0, 2 mM EDTA) and analyzed with electrophoresis (50 V, 2 h). The products were visualized under UV-light after staining with ethidium bromide. The activity of the enzyme (%) was determined from the intensity of the band corresponding to the super-coiled form of plasmid pBR322 and estimated using the Total Lab v2.01 software.
An equal volume of DMSO was added to the control. The reaction was started upon addition of DNA gyrase (0.4 µg) and relaxed plasmid pBR322 (0.25–0.5 µg), which was used as a substrate, and performed as described above. Calculations were made using the Total Lab v2.01 program.

T1 sequence (P0AES4 whole entry, one chain of several): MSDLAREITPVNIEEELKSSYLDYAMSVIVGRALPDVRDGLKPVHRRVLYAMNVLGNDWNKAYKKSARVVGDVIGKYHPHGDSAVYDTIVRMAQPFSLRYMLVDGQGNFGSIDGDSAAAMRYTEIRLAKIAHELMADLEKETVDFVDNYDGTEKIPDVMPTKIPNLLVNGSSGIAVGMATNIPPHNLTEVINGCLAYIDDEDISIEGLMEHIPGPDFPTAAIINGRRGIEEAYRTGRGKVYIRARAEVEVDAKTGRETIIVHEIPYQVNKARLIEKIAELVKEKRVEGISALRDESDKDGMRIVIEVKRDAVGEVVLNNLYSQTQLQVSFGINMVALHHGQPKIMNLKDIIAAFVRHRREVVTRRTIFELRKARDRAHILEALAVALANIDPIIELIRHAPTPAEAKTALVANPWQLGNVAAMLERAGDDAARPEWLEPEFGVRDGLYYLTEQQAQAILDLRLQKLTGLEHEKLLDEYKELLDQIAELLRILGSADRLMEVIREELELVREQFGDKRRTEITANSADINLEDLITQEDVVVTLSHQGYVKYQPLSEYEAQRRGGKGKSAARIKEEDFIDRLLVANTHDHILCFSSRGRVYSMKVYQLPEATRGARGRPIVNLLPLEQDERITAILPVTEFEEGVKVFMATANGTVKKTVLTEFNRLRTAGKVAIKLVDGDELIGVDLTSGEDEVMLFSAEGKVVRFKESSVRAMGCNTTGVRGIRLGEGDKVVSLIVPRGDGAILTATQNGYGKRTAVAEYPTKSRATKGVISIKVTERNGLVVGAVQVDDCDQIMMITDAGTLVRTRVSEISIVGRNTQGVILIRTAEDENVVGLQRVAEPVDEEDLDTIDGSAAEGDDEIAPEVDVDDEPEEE

Row | Compound | I50 (inhibition activity towards DNA gyrase) (relaxed pBR322, 60 min, 25°C) | also measured
1 | O=C(O)c1cn2c3c(c(N4CCCC4)c(F)cc3c1=O)OC(c1cccc([N+](=O)[O-])c1)=N2 [EV-452-D] | EV-452-D Inactive | –
2 | Oc1ccccc1/C=N\Nc1nc(-c2ccccc2)nc2cccc(F)c12 [EV-T150-C] | EV-T150-C Inactive | –
3 | O=c1nc(Nc2ncccn2)sc2c(F)c(F)c(F)cc12 [EV-N119-2] | EV-N119-2 Inactive | –
4 | O=c1[nH]c(N/N=C/c2ccccc2O)nc2c(F)c(N3CCCC3)c(F)cc12 [EV-T143-B] | EV-T143-B Inactive | –
5 | CCOC(=O)c1cn2c3c(c(F)c(F)cc3c1=O)OC(c1cccnc1)=N2 [EV-313-D] | EV-313-D Inactive | –
6 | O=C(O)c1cn2c3c(c(F)c(F)cc3c1=O)NC(c1ccccc1)=N2 [EV-591] | EV-591 Inactive | –
7 | CCOC(=O)c1cn2c3c(c(F)c(F)cc3c1=O)OC[C@@H]2C [IOS-E, Ethyl ester of (3S)-(-)-9,10-difluoro-3-methyl-7-oxo-2,3-dihydro-7H-pyrido[1,2,3-d,e][1, 4]-benzoxazine-6-carboxylic acid] | – | Inhibitory activity towards DNA gyrase, in words: no significant activity; also recorded: practically inactive
8 | CN1C2=Nn3cc(C(=O)O)c(=O)c4c(F)c(F)c(N5CCCC5)c(c43)N2c2cc(F)c(F)cc21 [EV-465] | – | Activity towards DNA gyrase compared with that of levofloxacin: two orders of magnitude; IC50 (relaxed pBR322, 60 min, 25°C, read-out: I50 (inhibition activity towards DNA gyrase)): > 63.4 µM
9 | C[C@H]1COc2c(F)c(F)cc3c(=O)c(C(=O)O)cn1c23 [IOS-K, (3S)-(-)-Difluoro-3-methyl-7-oxo-2,3-dihydro-7H-pyrido[1,2,3-d,e][1, 4]-benzoxazine-6-carboxylic acid] | – | Inhibitory activity towards DNA gyrase, in words: significant inhibitory activity; Activity towards DNA gyrase compared with that of levofloxacin: lower by an order of magnitude
10 | CC(C)(C)c1cc(-n2c(-c3ccccc3)nc3cc(F)c(F)cc3c2=O)no1 [EV-X149] | EV-X149 Inactive | –
11 | CCn1cc(C(=O)O)c(=O)c2cc(F)c(N3CCNCC3)cc21 [IOS-NORFL_01, norfloxacin, reference compound] | – | Inhibitory activity towards DNA gyrase, in words: poor inhibitor
12 | O=C(O)c1cn2c3c(c(N4CCOCC4)c(F)cc3c1=O)SC(NC1CCCCC1)=N2 [EV-572] | EV-572 Inactive | –
13 | CCSc1nc(Nc2ccc(F)c(F)c2)c2cc(F)c(F)c(F)c2n1 [EV-X58-A] | EV-X58-A Inactive | –
14 | CC1COc2c(ccc(F)c2F)N1 (racemic) [IOS-RS, (R,S)-7,8-Difluoro-3-methyl-2,3-dihydro-4H-benzo[b][1, 4]-oxazine] | – | Inhibitory activity towards DNA gyrase, in words: no significant activity
15 | O=C(C(=C1Nc2ccccc2N1)c1nc(=O)c2cc(F)c(F)c(F)c2s1)c1ccccc1 [EV-N51-B] | EV-N51-B Inactive | –
16 | O=c1c2cc(F)c(F)cc2nc(/C=C/c2ccccc2O)n1-c1ccccc1 [EV-T156] | EV-T156 Inactive | –
17 | C[C@H]1COc2c(ccc(F)c2F)N1 [IOS-S, (3S)-2,3-Dihydro-3-methyl-7,8-difluoro-1,4-benzoxazine] | – | Inhibitory activity towards DNA gyrase, in words: no significant activity
